Laboratory results taken from ChEMBL document CHEMBL1201862, “PubChem BioAssay data set” (2004).
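In this assay, cells in 96-well plates receive the compound at five concentrations for 48 hours. Endpoints are linearly interpolated between the surrounding concentrations. GI50 = concentration required for 50% inhibition of growth.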 Calls of active or inactive are those of the source. Rule as the data show it: active = GI50 up to about 1.1 µM and inactive = higher.

Columns and labels:
Assay in all cases: DTP human tumour cell line panel, 48 h
HOP-92 = system: HOP-92
NCI-H226 = system: NCI-H226
DLD-1 = system: DLD-1
Malme-3M = system: Malme-3M
OVCAR-4 = system: OVCAR-4
HL-60 = system: HL-60
M19-MEL = system: M19-MEL
KM12 = system: KM12
NCI-H522 = system: NCI-H522
SK-MEL-2 = system: SK-MEL-2
M14 = system: M14
HCT-116 = system: HCT-116
A498 = system: A498
A549 = system: A549
HCT-15 = system: HCT-15
HT-29 = system: HT-29
IGROV-1 = system: IGROV-1
TK-10 = system: TK-10
SK-OV-3 = system: SK-OV-3
OVCAR-5 = system: OVCAR-5
K562 = system: K562
SF-295 = system: SF-295
LXFL 529 = system: LXFL 529
UACC-257 = system: UACC-257
EKVX = system: EKVX
SF-268 = system: SF-268
MOLT-4 = system: MOLT-4
NCI-H23 = system: NCI-H23
RPMI-8226 = system: RPMI-8226
UACC-62 = system: UACC-62
SN12C = system: SN12C
U-251 = system: U-251
OVCAR-3 = system: OVCAR-3
COLO 205 = system: COLO 205
SNB-78 = system: SNB-78
SK-MEL-28 = system: SK-MEL-28
RXF 393 = system: RXF 393
KM-20L2 = system: KM-20L2
ACHN = system: ACHN
UO-31 = system: UO-31
SNB-75 = system: SNB-75
786-0 = system: 786-0
NCI-H460 = system: NCI-H460
CCRF-CEM = system: CCRF-CEM
HOP-18 = system: HOP-18
SK-MEL-5 = system: SK-MEL-5
DMS-273 = system: DMS-273
DMS-114 = system: DMS-114
HCC 2998 = system: HCC 2998
XF498 = system: XF498
OVCAR-8 = system: OVCAR-8
SW-620 = system: SW-620
SF-539 = system: SF-539
CAKI-1 = system: CAKI-1
LOX IMVI = system: LOX IMVI
HOP-62 = system: HOP-62
SNB-19 = system: SNB-19
SR = system: SR

Measured: GI50

Oc1c(Cl)c2nccnc2c2ccccc12
> 100 µM: HCT-15
inactive: HOP-92 > 100 µM | NCI-H226 > 100 µM | DLD-1 > 100 µM | Malme-3M > 100 µM | OVCAR-4 > 100 µM | HL-60 > 100 µM | M19-MEL > 100 µM | KM12 > 100 µM | NCI-H522 > 100 µM | SK-MEL-2 > 100 µM | M14 > 100 µM | HCT-116 > 100 µM | A498 > 100 µM | A549 > 100 µM | HT-29 > 100 µM | IGROV-1 > 100 µM | TK-10 > 100 µM | SK-OV-3 > 100 µM | OVCAR-5 > 100 µM | K562 > 100 µM | SF-295 > 100 µM | LXFL 529 > 100 µM | UACC-257 > 100 µM | EKVX > 100 µM | SF-268 > 100 µM | MOLT-4 > 100 µM | NCI-H23 > 100 µM | RPMI-8226 > 100 µM | UACC-62 > 100 µM | SN12C > 100 µM | U-251 > 100 µM | OVCAR-3 > 100 µM | COLO 205 > 100 µM | SNB-78 > 100 µM | SK-MEL-28 > 100 µM | RXF 393 > 100 µM | KM-20L2 > 100 µM | ACHN > 100 µM | UO-31 > 100 µM | SNB-75 > 100 µM | 786-0 > 100 µM | NCI-H460 > 100 µM | CCRF-CEM > 100 µM | HOP-18 36.9 µM | SK-MEL-5 > 100 µM | DMS-273 > 100 µM | DMS-114 > 100 µM | HCC 2998 > 100 µM | XF498 > 100 µM | OVCAR-8 > 100 µM | SW-620 > 100 µM | SF-539 > 100 µM

O=c1cc(-c2ccccc2)oc2cc(OCCCOc3ccc4c(=O)cc(-c5ccccc5)oc4c3)ccc12
> 100 µM: HCT-15
inactive: HOP-92 > 100 µM | NCI-H226 > 100 µM | DLD-1 > 100 µM | CAKI-1 > 100 µM | Malme-3M > 100 µM | OVCAR-4 > 100 µM | HL-60 > 100 µM | LOX IMVI > 100 µM | M19-MEL > 100 µM | KM12 > 100 µM | NCI-H522 > 100 µM | SK-MEL-2 > 100 µM | M14 > 100 µM | HCT-116 > 100 µM | A549 > 100 µM | HT-29 > 100 µM | IGROV-1 > 100 µM | TK-10 > 100 µM | SK-OV-3 > 100 µM | OVCAR-5 > 100 µM | K562 > 100 µM | SF-295 > 100 µM | LXFL 529 > 100 µM | UACC-257 > 100 µM | EKVX > 100 µM | HOP-62 > 100 µM | MOLT-4 > 100 µM | NCI-H23 > 100 µM | RPMI-8226 > 100 µM | UACC-62 > 100 µM | SN12C > 100 µM | U-251 > 100 µM | SNB-19 > 100 µM | OVCAR-3 > 100 µM | COLO 205 > 100 µM | SNB-78 > 100 µM | SK-MEL-28 > 100 µM | RXF 393 > 100 µM | KM-20L2 > 100 µM | ACHN > 100 µM | SNB-75 47.2 µM | 786-0 > 100 µM | NCI-H460 > 100 µM | CCRF-CEM > 100 µM | HOP-18 > 100 µM | SK-MEL-5 > 100 µM | DMS-273 > 100 µM | DMS-114 > 100 µM | HCC 2998 > 100 µM | SR > 100 µM | XF498 > 100 µM | OVCAR-8 > 100 µM | SW-620 > 100 µM | SF-539 > 100 µM
